Experimental data taken from US20230331739A1, “INDOLO HEPTAMYL OXIME ANALOG CRYSTAL AS PARP INHIBITOR AND METHOD FOR PREPARING SAME” (CHIA TAI TIANQING PHARMACEUTICAL GROUP CO., LTD., priority 2020, published 2023).
pIC50: −log10 of the molar value.

What was measured:
CYP3A4-M = CYP3A4-M (Homo sapiens (Human), UniProt P08684); test: Inhibition against cytochrome P450 isoenzymes, CYP3A4-M; assay type: in vitro ADME; conditions: human liver microsomes
Procedure: The inhibition of the test compound against different subtypes of the human cytochrome P450 isoenzyme was determined. The test compound, a standard inhibitor (100×final concentration) and a mixed substrate working solution were prepared; the microsomes frozen in a refrigerator at −80° C. were taken out and thawed. […]

PARylation in Lovo cells = test: PARylation inhibition in Lovo cells; assay type: cell-based; conditions: Homo sapiens, 25 mM H2O2
Procedure: Experimental materials: test compounds, F12K medium, Lovo cells, Anti-Poly (ADP-ribose) mouse monoclonal antibody; FITC-labeled goat anti-mouse IgG; hydrogen peroxide; DAPI; PBS; methanol; acetone; Tween-20; skimmed milk powder; Envision Multimode Plate Reader.
Day One: Lovo cells were seeded on a plate at 60,000 cells/well, and then incubated overnight at 37° C./5% CO2.
1. Washing solution: Tween-20 was added to 1×PBS, and the final concentration of Tween-20 was 0.05%.
2. Blocking solution: Skimmed milk powder was added to the washing solution, and the final concentration of the skimmed milk powder was 5%.
3. Cell immobilization solution: Methanol and acetone were mixed in a ratio of 7:3.
Preparation of test compounds: Compound intermediate plate 1: The compound was diluted to final concentrations of 10 μM to 0.13 nM with DMSO and PBS, and the concentration of DMSO was 1%; Compound intermediate plate 2: The compound was diluted to final concentrations of 10 μM to 0.13 nM with DMSO and PBS containing 50 mM hydrogen peroxide, and the concentration of DMSO was 1%.
1. […]
10. […] After removal of the liquid, corresponding fluorescence values were read on Envision: FITC: 480 nm and 530 nm; DAPI: 360 nm and 460 nm. […]

[1] = Metabolic stability in liver microsomes, human; assay type: in vitro ADME; conditions: 1 μM, 0.5 mg/mL
Procedure: (§1) Objective: To test the metabolic stability of the test compound in liver microsomes of three species.
(§2) Procedures: 1 μM test compound and microsomes (0.5 mg/mL) were incubated at 37° C. in the presence of an NADPH regeneration system. Positive controls were testosterone ([…]), propylamine propiophenone (2D6 substrate) and diclofenac (2C9 substrate). At 37° C., positive controls were incubated with microsomes (0.5 mg/mL) in the presence of an NADPH regeneration system. The reaction was stopped by direct mixing of the sample with cold acetonitrile containing an internal standard at various time points (0, 5, 10, 20, 30 and 60 min). The compound and microsomes were incubated for 60 min in the absence of an NADPH regeneration system. One replicate (n=1) was set at each time point. The samples were analyzed by LC/MS/MS; the concentration of the compound was characterized by the ratio of the analyte peak area to the internal standard peak area.

[2] = Metabolic stability in liver microsomes, mouse; assay type: in vitro ADME; conditions: 1 μM, 0.5 mg/mL
Procedure: as §1, §2

[3] = Body weight change in the MDA-MB-436 xenograft study; assay type: in vivo; conditions: three dose groups (12.5, 25, 50 mg/kg PO QD)
Excerpt: 3. Daily observation of animals: the animals were monitored daily for health and death, and routine examinations include observation of the effect on tumor growth and the therapy on the daily performance of the animals, such as behavioral activities, food and water intake, change in body weight, appearance, or other abnormal conditions.
1. The body weights of the animals were used as a reference index for indirectly measuring the toxicity of the drug. In this model, no other morbidity or mortality occurred during the study.

Sequence of CYP3A4-M (P08684 whole entry): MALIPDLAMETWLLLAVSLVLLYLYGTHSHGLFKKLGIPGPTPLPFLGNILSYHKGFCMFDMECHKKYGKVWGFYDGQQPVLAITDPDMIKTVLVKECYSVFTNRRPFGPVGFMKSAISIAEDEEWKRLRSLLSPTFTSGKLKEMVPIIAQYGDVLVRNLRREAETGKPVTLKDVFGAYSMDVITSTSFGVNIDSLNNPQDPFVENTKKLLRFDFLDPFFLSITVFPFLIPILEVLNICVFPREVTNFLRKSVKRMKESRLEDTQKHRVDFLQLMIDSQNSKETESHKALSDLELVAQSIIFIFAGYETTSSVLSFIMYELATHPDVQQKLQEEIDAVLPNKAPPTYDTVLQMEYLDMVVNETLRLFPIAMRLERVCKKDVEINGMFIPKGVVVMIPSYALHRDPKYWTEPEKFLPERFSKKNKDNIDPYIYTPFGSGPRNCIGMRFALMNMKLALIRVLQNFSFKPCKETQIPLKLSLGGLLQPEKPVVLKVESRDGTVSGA

Compound: C[C@]1(c2ccc(-c3[nH]c4cc(F)cc5c4c3CONC5=O)cc2)CCCN1 [Compound 1]
- IC50 (CYP3A4-M): 32.9 µM
- pIC50 (PARylation in Lovo cells): 7.72
- Residual content after 60 min of incubation [1]: 35.9%
- Residual content after 60 min of incubation [2]: 40.7%
- change in body weight [3]: little change in body weight
